According to patent publication US8802235B2, “Drug and imaging agent delivery compositions and methods” (priority 2012, dated 2014):

What was measured:
MCF-7 cells [1] = assay: Cell growth inhibition (resazurin blue), MCF-7; format: cell-based, human; conditions: 72 hours after drug addition
Protocol: Plates were seeded with 3,000 cells/well in 100 μL of media (12 replicates/sample). Drug or conjugate solutions were applied after 24 hours. […] The in vitro anti-proliferative activities of cisplatin, NO-donating prodrug, and their star polymer-based conjugates, including acid-Pt, acid-NO, and combinational acid-Pt/acid-NO were evaluated in cell culture using a human breast cancer cell line, MCF-7. […] The acid-Pt appeared to be less cytotoxic than cisplatin in the cells. This is likely due to the slow release of the active drug, which was not unexpected for a sustained-delivery platform. One of the obstacles that has not yet been overcome in infusion chemotherapy is the poor tumor penetration and accumulation of small-molecule anti-cancer agents. Usually the majority of the chemotherapeutics have been cleared from systemic circulation, via the kidneys, before a significant concentration of the anti-cancer agent is achieved in the tumorigenic tissues. However, the acid-Pt and acid-NO nanoconjugates may greatly enhance the intratumoral drug concentration compared to the normal tissues due to the Enhanced Permeability and Retention effect (EPR), in which nanoformulations tend to penetrate tumors more effectively via leaky, fenestrated tumor blood vessels. […]

MDA-1986 cells [2] = assay: Cell growth inhibition (resazurin blue), MDA-1986; format: cell-based, human; conditions: 72 hours
Protocol: (§1) Cell growth inhibition was determined in 96-well plates (3,000 cells/well in 100 μL, 12 replicates/sample) using highly invasive human breast cancer cells, MDA-MB-231, non-metastatic human breast cancer cells, MDA-MB-468, and highly invasive human head and neck squamous cell cancer cells positive for epithelia growth factor receptor, MDA-1986. Drug or conjugate solutions were applied after 24 hours, and 72 hours post-addition, resazurin blue in 10 μL of PBS was applied to each well (final concentration 5 μM).

MDA-MB-468 cells = assay: Cell growth inhibition (resazurin blue), MDA-MB-468; format: cell-based, human; conditions: 72 hours
Protocol: as §1

MDA-MB-231 cells = assay: Cell growth inhibition (resazurin blue), MDA-MB-231; format: cell-based, human; conditions: 72 hours
Protocol: as §1

MDA-1986 cells [3] = assay: Nitric oxide release (Griess) in cell culture with MDA-1986 cells; format: cell-based, human
Protocol: The fluorescence intensity was measured between 520 and 550 nm using a fluorescence microplate reader.
The concentration of nitrite, the stable breakdown product of gaseous nitric oxide, was measured using Griess assay as an indirect measurement of nitric oxide concentration in cell culture media. The assay is based on the reaction between sulfanilamide, N-1-napthyethylenediamine dihydrochloride and nitrite, under acidic conditions to produce a […] azo compound.

MCF-7 cells [4] = system: MCF-7 cells

- IC50 (MCF-7 cells [1]): 48 ± 28 µM
- IC50 (MDA-MB-468 cells): 26 ± 4 µM
- IC50 (MDA-MB-231 cells): 32 ± 3 µM
- Release half-life (MDA-1986 cells [3]): 7.1 h
- Release half-life (MCF-7 cells [4]): 7.4 h
SMILES: O=[N+]([O-])c1ccc(ON=[N+]([O-])N2CCN(CCOCCO)CC2)c([N+](=O)[O-])c1 [NO1, O^2-(2,4-Dinitrophenyl) 1-{[4-(2-(2-hydroxyethoxy))ethyl]piperazin-1-yl}diazen-1-ium-1,2-diolate]
- IC50 (MDA-1986 cells [2]): 33 ± 1 µM
